The target in assay [1] is T1, 5-hydroxytryptamine receptor 2B (Homo sapiens, UniProt P41595). In words: Relative efficacy against human 5-hydroxytryptamine 2B receptor expressed in CHO cells using fluorometric imaging plate reader relative to 10 uM 5-HT. It counts as functional, cell-based.
Assay [2] has as its target T2, 5-hydroxytryptamine receptor 2A (Homo sapiens, UniProt P28223). In words: Affinity for human 5-hydroxytryptamine 2A receptor expressed in mammalian cell line.
Assay [3] deals with T2, 5-hydroxytryptamine receptor 2A. Put plainly: Relative efficacy against human 5-hydroxytryptamine 2A receptor expressed in CHO cells using fluorometric imaging plate reader relative to 10 uM 5-HT. It counts as functional, cell-based.
The target in assay [4] is T3, 5-hydroxytryptamine receptor 2C (Homo sapiens, UniProt P28335).
T3 sequence (P28335 whole entry): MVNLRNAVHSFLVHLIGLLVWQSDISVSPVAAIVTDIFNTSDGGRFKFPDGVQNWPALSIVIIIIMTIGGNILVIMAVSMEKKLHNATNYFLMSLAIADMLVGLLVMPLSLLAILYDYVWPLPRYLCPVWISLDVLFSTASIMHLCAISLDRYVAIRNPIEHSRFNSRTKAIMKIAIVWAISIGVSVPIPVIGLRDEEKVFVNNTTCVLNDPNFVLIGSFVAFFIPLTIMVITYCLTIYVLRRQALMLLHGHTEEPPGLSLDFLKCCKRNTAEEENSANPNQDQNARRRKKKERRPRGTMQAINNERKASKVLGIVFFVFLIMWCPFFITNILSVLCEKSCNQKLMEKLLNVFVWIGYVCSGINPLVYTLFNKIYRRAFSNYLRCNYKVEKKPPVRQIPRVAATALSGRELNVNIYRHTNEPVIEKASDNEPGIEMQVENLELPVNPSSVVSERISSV
In words: Functional activity against human 5-hydroxytryptamine 2C receptor expressed in CHO cells using fluorometric imaging plate reader. The assay is classed as cell-based.

Assay [5] deals with T3, 5-hydroxytryptamine receptor 2C. Put plainly: Affinity for human 5-hydroxytryptamine 2C receptor expressed in mammalian cell line.
Assay [6] concerns the target T1, 5-hydroxytryptamine receptor 2B. Put plainly: Affinity for human 5-hydroxytryptamine 2B receptor expressed in mammalian cell line.
The target is the same in assay [7]. In words: Functional activity against human 5-hydroxytryptamine 2B receptor expressed in CHO cells using fluorometric imaging plate reader. It counts as cell-based.
Assay [8] concerns the target T2, 5-hydroxytryptamine receptor 2A. Put plainly: Functional activity against human 5-hydroxytryptamine 2A receptor expressed in CHO cells using fluorometric imaging plate reader. It counts as cell-based.
Assay [9] relates to Rattus norvegicus. Put plainly: Ability of compound to decrease food intake in rats after subcutaneous administration. The assay is classed as functional. The following applies: sc, read-out: MED.
Assay [10] deals with Rattus norvegicus. Put plainly: Ability of compound to decrease food intake in rats after oral administration. The assay is classed as functional. As to conditions: read-out: MED.

T2 sequence (P28223 whole entry): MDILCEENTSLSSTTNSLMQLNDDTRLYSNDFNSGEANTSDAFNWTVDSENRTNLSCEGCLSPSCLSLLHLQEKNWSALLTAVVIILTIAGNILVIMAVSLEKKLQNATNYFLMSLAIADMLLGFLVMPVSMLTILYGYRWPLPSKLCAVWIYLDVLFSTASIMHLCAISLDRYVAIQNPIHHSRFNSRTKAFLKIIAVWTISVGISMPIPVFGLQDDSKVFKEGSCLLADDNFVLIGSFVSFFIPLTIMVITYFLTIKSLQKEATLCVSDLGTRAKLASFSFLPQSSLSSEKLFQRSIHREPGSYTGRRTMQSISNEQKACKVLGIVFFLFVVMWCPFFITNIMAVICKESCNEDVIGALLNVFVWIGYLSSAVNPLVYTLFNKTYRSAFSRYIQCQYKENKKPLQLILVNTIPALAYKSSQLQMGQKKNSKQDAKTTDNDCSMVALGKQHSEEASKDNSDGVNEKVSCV
T1 sequence (P41595 whole entry): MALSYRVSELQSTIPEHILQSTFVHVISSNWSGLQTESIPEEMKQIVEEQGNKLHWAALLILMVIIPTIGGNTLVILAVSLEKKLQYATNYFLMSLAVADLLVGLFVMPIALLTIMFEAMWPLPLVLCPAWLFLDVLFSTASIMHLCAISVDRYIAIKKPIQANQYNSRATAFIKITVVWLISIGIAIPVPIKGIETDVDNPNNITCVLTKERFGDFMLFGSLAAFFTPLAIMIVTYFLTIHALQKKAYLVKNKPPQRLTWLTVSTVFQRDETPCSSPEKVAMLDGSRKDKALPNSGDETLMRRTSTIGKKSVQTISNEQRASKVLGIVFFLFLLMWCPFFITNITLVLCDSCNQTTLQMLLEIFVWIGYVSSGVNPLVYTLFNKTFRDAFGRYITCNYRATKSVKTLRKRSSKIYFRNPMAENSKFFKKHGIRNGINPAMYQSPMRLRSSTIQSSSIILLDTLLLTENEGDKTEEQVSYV

By Ki is commonly meant the dissociation constant of the complex between target and ligand, obtained from inhibition or displacement. One may read the EC50 as the concentration giving half of the maximal effect. A low value points to a more potent agent. `C[C@H](N)CN1CCc2cc(F)c(I)cc21`: the Relative efficacy worked out at 71% in assay [1] and 54% in assay [3]. Further, the Ki was 0.139 µM in assay [2], 0.017 µM in [5] and 0.038 µM in [6]. Moreover, the EC50 was 0.064 µM in assay [4], 0.022 µM in assay [7] and 0.432 µM in assay [8].

As for `CSc1cc2c(cc1F)CCN2C[C@H](C)N`, the Relative efficacy came out at 72% in assay [1] and 87% in assay [3]. Also, the results for the Ki in assay [2], in [5] and in assay [6] were 0.053 µM, 0.0032 µM and 0.021 µM, respectively. Moreover, the minimal effective dose in the assay with Rattus norvegicus [9] is 0.3 mg/kg; with Rattus norvegicus [10], 3 mg/kg. For the same molecule, the figures for the EC50 in assay [4], in assay [7] and in [8] were 0.0067 µM, 0.0041 µM and 0.076 µM, respectively.

In the case of `CSc1ccc2c(c1)N(C[C@H](C)N)CC2`, the Relative efficacy in assay [1] turned out to be 78%; in assay [3], 72%. Also, the Ki in assay [2] is 0.171 µM; in assay [5] it was 0.0057 µM; in assay [6], 0.089 µM. The EC50 is 0.026 µM in assay [4], 0.01 µM in assay [7] and 0.164 µM in [8].

Consider `C[C@H](N)CN1CCc2cc(F)c(Cl)cc21`, for which the Relative efficacy in assay [1] amounted to 77%; in assay [3], 66%. In addition, the Ki came out at 0.167 µM in assay [2], 0.014 µM in assay [5] and 0.031 µM in assay [6]. For the same molecule, the values for the EC50 in [4], in assay [7] and in [8] were 0.031 µM, 0.0073 µM and 0.367 µM, respectively.

With `C[C@H](N)Cn1ccc2cc(F)c(Cl)cc21`, the Relative efficacy in assay [1] was 71%; in assay [3] it was 72%. Further, the Ki in [2] amounted to 0.038 µM; in assay [5], 0.0023 µM; in [6] it was 0.0051 µM. For the same molecule, the EC50 in [4] was found to be 0.018 µM; in assay [7], 0.0043 µM.

Turning to `C[C@H](N)CN1CCc2ccc3c(c21)CCCO3`, the Relative efficacy came out at 67% in assay [1] and 71% in assay [3]. Further, the values for the Ki in [2], in assay [5] and in assay [6] were 0.395 µM, 0.038 µM and 0.355 µM, respectively. Further, the EC50 amounted to 0.028 µM in [4], 0.036 µM in assay [7] and 0.125 µM in [8].

`C[C@H](N)CN1CCc2ccc(Cl)cc21`: the Relative efficacy in assay [1] came out at 76%; in assay [3] it was 55%. The Ki in assay [2] was determined as 0.364 µM; in [5], 0.013 µM; in assay [6] it was 0.054 µM. In addition, the EC50 turned out to be 0.044 µM in [4], 0.0065 µM in assay [7] and 0.602 µM in assay [8].

For `CCSc1ccc2c(c1)N(C[C@H](C)N)CC2`, the Relative efficacy in assay [1] was 67%; in assay [3] it was 71%. Besides, the Ki in assay [2] stood at 0.184 µM; in [5] it was 0.016 µM; in [6], 0.189 µM. The EC50 in [4] was determined as 0.04 µM; in [7], 0.072 µM; in assay [8], 0.378 µM.

Regarding `C[C@H](N)CN1CCc2ccc(Br)cc21`, the Relative efficacy stood at 78% in [1] and 54% in assay [3]. In addition, the values for the inhibitory constant (Ki) in [2], in assay [5] and in assay [6] were 0.351 µM, 0.024 µM and 0.046 µM, respectively. The minimal effective dose came out at 3 mg/kg in the assay with Rattus norvegicus [9] and 30 mg/kg with Rattus norvegicus [10]. For the same molecule, the EC50 in assay [4] came out at 0.044 µM; in [7], 0.011 µM; in assay [8], 0.719 µM.

Turning to `CCSc1cc2c(cc1F)CCN2C[C@H](C)N`, the Relative efficacy in assay [1] was 66%; in [3], 80%. The results for the Ki in assay [2], in assay [5] and in [6] were 0.058 µM, 0.0064 µM and 0.062 µM, respectively. For the same molecule, the EC50 in assay [4] is 0.021 µM; in [7] it was 0.031 µM; in assay [8], 0.181 µM.

For the molecule `C[C@H](N)CN1CCc2ccc3c(c21)CCO3`, the Relative efficacy was found to be 74% in assay [1] and 81% in assay [3]. The Ki in assay [2] came out at 0.112 µM; in assay [5] it was 0.0087 µM; in assay [6], 0.049 µM. In addition, the results for the minimal effective dose in the assay with Rattus norvegicus [9] and with Rattus norvegicus [10] were 0.1 mg/kg and 1 mg/kg, respectively. The values for the EC50 in assay [4], in assay [7] and in [8] were 0.0045 µM, 0.003 µM and 0.062 µM, respectively.

Consider `C[C@H](N)CN1CCc2cc(F)c(C(F)(F)F)cc21`, for which the Relative efficacy in [1] stood at 86%; in [3], 45%. The results for the Ki in assay [2], in assay [5] and in assay [6] were 0.432 µM, 0.026 µM and 0.088 µM, respectively. For the same molecule, the results for the EC50 in assay [4], in assay [7] and in assay [8] were 0.13 µM, 0.049 µM and 1.06 µM, respectively.

On to `Clc1cccc(N2CCNCC2)c1` [CHLOROPHENYLPIPERAZINE], for which the minimal effective dose in the assay on Rattus norvegicus [9] was found to be 1 mg/kg; with Rattus norvegicus [10] it was 10 mg/kg.

Source of the values: ChEMBL document CHEMBL1148243, “Indoline derivatives as 5-HT(2C) receptor agonists” (Bioorg Med Chem Lett, 2004).
